{"source": "paper PMC3371188", "about": "(Applied Microbiology and Biotechnology, 2012)", "molecular_target": "AldO (Streptomyces coelicolor, UniProt Q9ZBU1)", "sequence (Q9ZBU1 whole entry)": "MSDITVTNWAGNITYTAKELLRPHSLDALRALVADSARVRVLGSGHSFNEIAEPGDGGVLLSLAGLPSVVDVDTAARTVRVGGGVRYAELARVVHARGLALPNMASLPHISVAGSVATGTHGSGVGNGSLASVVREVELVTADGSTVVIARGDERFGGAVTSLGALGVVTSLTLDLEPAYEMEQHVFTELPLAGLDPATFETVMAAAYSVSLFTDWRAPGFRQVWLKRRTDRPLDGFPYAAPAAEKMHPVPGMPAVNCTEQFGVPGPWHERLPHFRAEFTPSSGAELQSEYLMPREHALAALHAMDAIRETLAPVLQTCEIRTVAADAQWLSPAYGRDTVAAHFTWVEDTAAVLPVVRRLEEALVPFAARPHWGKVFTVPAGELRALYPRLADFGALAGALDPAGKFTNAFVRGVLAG", "experiment": "HRP-coupled H2O2 assay, thermostability and temperature optimum", "format": "biochemical", "conditions": "10 mM xylitol; 50 mM potassium phosphate pH 7.5", "data": [{"smiles": "OC[C@@H](O)[C@H](O)[C@@H](O)CO", "note": "[xylitol]", "values": [{"measurement": "HRP-coupled H2O2 assay, thermostability and temperature optimum", "result": "Oxidase activity with xylitol as substrate was measured after enzyme solutions had been incubated"}]}]}
